Values quoted from earlier work as cited in patent US6403571B2, “Combination therapy for reducing the risks associated with cardiovascular disease” (Merck & Co., Inc., priority 1996, dated 2002).
Counter-ions that a name gives are not always drawn. Blank lines part the entries; values can stand above or below the compound they belong to. Where a SMILES comes first, the peptide text is derived from it. Bridges are numbered along the chain shown (N, C = ends). [ ]: non-standard residue; d: D form. hArg = N=C(N)NCCCC[C@H](N)C(=O)O; Mpa = O=C(O)CCS

How the values were obtained:
GP IIb/IIIa [1] = target: T1, GP IIb/IIIa (Homo sapiens, UniProt P05106+P08514)
GP IIb/IIIa [2] = target: T1, GP IIb/IIIa; conditions: for selectivity for GP IIb/IIIa: administered intravenously
αvβ3 = αvβ3 (Homo sapiens, UniProt P05106+P06756)
[3] = prodrug, requires biotransformation in vivo to its active form

Sequence of αvβ3 (P06756 31-889 limits assumed): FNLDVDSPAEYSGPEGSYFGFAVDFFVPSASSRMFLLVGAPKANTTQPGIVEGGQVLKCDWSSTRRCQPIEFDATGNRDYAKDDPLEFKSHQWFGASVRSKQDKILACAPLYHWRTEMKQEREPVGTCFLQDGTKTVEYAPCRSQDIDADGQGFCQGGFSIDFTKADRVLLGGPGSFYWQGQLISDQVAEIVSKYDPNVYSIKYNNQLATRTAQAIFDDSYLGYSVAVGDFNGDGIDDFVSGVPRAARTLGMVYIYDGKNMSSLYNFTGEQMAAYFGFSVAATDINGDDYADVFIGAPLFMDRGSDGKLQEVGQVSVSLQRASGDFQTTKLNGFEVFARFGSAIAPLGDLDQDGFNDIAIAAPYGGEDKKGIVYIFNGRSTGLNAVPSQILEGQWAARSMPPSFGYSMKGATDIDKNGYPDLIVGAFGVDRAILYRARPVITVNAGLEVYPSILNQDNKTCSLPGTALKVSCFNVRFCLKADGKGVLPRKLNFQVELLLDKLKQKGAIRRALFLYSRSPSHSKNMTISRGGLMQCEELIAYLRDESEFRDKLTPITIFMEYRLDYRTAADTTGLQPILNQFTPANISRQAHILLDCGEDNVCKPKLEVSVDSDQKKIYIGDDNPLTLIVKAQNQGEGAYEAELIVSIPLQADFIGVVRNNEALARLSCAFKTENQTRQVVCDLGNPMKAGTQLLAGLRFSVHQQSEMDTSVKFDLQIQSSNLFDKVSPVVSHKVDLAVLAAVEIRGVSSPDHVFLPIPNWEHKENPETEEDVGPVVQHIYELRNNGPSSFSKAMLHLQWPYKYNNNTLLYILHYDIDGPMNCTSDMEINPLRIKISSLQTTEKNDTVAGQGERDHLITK
Sequence of αvβ3 (P06756 891-1048 partner limits assumed): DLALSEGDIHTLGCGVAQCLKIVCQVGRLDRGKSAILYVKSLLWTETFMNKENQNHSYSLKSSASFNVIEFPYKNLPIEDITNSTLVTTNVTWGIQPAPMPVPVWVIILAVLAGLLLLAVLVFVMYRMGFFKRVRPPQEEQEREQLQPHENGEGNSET
Sequence of αvβ3 (P05106 27-788): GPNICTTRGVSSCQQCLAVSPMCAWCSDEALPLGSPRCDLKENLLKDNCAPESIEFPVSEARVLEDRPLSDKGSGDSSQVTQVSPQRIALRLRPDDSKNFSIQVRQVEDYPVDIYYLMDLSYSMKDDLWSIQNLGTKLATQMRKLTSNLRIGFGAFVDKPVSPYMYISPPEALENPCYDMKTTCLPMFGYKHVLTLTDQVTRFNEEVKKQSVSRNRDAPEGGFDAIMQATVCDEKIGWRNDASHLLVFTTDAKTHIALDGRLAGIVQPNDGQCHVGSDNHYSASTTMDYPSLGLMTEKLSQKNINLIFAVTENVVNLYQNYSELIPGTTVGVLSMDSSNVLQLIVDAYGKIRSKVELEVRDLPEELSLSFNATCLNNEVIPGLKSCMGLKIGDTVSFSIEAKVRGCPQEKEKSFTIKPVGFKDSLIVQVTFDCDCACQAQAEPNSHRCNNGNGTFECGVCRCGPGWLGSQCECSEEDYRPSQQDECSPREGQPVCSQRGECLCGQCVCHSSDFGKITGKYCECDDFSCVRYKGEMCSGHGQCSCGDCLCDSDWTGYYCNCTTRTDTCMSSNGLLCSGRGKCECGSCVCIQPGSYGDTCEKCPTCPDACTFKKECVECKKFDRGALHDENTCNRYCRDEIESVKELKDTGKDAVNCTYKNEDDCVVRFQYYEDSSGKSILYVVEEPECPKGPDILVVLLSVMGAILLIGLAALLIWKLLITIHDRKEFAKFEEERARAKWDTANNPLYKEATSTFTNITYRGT

Compound: 7E3: monoclonal antibody which blocks the GP IIb/IIIa receptor and the αvβ3 receptor [Compound 7E3]
- need for transfusion (GP IIb/IIIa [1]; 7E3 added to heparin and aspirin, increasing from 3%): 6%
- incidence of patients with decreased hematocrit (GP IIb/IIIa [1]; 7E3 added to heparin and aspirin, increasing from 7%): 15%
- combined endpoints of death, non-fatal myocardial infarction (MI) and need for urgent revascularization (GP IIb/IIIa [1]; 7E3 added to standard regime of heparin and aspirin, decrease from 12.8% without blockade): 8.3%

Compound: N=C(N)NCCCC[C@@H]1NC(=O)CCSSC[C@@H](C(N)=O)NC(=O)[C@@H]2CCCN2C(=O)[C@H](Cc2c[nH]c3ccccc23)NC(=O)[C@H](CC(=O)O)NC(=O)CNC1=O [Integrelin] ([Mpa][hArg]GDWPC-NH2; disulfide 1-7)
- effect on ligand binding to GP IIb/IIIa (GP IIb/IIIa [2]): inhibits ligand binding
- effect on ligand binding to αvβ3 (αvβ3): very little effect

The next lines start with the values.

- selectivity for GP IIb/IIIa (GP IIb/IIIa [2]): selective
Compound: CCCCS(=O)(=O)N[C@@H](Cc1ccc(OCCCCC2CCNCC2)cc1)C(=O)O [MK-383, 2-S-(n-Butylsulfonylamino)-3[4-piperidin-4-yl)butyloxyphenyl]propionic acid hydrochloride]

- selectivity for GP IIb/IIIa (GP IIb/IIIa [2]): selective
Compound: N=C(N)c1ccc(C(=O)N[C@@H](Cc2ccc(O)cc2)C(=O)N2CCC(OCC(=O)O)CC2)cc1 [Ro 44-9883]

- oral bioavailability [3]: high oral bioavailability
Compound: C#C[C@H](CC(=O)OCC)NC(=O)CCC(=O)Nc1ccc(C(=N)N)cc1 [SC54684, ethyl 3-[[4-[[4-(aminoiminomethyl)phenyl]amino]-1,4-dioxobutyl]amino]-4-pentynoate]
